Where two headings read alike, the source gives them in different places.
What was measured:
[1] = system: mitochondrial respiratory chain complex III; assay type: biochemical, rat
[2] = system: mitochondrial respiratory chain complex V; assay type: biochemical, rat
[3] = system: mitochondrial respiratory chain complex I; assay type: biochemical, rat; settings: at 20μM
[4] = system: Caenorhabditis elegans strain PE255; settings: in vivo
[5] = system: HeLa cells expressing YFP-Parkin; assay: Parkin translocation assay; assay type: cell-based, human
HepG2 cells [6] = assay: Intracellular ATP content (cell viability) assay; assay type: cell-based, human
[7] = system: mitochondrial respiratory chain complex IV; assay type: biochemical, rat
[8] = system: Nrf2/ARE (ARE-bla HepG2 cells); assay: ARE β-lactamase reporter gene assay; assay type: cell-based, human
HepG2 cells [9] = assay: Oxygen consumption, Seahorse XF24 analyzer; assay type: cell-based, human
[10] = target: T1, mitochondrial respiratory chain complex II (Rattus norvegicus, UniProt P21913+Q641Z9+Q6PCT8+Q920L2); assay: Respiratory chain complex II activity; assay type: biochemical; settings: tested up to 100μM
T1 construct: Submitochondrial particles were prepared by subjecting the intact rat mitochondria, isolated as described above, to three successive freeze–thaw cycles; from tissue; host or cells: rat liver mitochondria (submitochondrial particles)
T1 sequence (Q920L2 35-656): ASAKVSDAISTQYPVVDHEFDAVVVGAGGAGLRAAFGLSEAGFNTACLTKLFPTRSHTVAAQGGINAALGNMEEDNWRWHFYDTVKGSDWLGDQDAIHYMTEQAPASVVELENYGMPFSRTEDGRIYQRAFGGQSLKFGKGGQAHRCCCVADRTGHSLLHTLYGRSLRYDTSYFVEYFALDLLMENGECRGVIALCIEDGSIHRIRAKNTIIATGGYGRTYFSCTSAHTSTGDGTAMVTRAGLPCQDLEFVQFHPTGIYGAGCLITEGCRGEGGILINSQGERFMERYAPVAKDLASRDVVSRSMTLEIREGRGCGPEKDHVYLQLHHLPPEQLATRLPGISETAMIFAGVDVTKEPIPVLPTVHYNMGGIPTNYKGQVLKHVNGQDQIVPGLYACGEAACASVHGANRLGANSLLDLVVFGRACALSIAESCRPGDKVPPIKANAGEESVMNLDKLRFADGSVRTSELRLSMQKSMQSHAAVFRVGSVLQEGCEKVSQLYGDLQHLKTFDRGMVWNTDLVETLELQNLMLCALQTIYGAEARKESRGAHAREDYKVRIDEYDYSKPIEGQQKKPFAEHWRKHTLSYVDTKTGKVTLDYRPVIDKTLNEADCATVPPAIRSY
T1 sequence (P21913 31-282): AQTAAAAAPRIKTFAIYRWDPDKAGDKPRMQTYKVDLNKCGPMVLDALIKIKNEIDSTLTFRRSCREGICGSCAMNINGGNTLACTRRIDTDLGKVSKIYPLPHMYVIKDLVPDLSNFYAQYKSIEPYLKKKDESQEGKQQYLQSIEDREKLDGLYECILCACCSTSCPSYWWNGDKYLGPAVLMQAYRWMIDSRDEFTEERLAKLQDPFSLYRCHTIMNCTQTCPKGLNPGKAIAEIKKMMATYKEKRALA
T1 sequence (Q641Z9 1-169): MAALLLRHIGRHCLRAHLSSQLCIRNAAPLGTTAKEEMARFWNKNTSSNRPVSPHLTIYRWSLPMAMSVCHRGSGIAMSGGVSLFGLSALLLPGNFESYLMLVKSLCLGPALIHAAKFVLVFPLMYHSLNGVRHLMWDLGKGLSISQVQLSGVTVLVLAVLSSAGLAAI
T1 sequence (Q6PCT8 57-159): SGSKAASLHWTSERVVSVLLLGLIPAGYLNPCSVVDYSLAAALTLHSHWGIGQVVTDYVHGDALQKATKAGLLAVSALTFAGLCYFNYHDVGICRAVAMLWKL

[11] = system: Caenorhabditis elegans (Bristol N2); settings: in vivo
[12] = system: Caenorhabditis elegans strain PE255; assay: In vivo C. elegans ATP status assay
HepG2 cells [13] = settings: cited from earlier work
HepG2 cells [14] = system: HepG2 cells
[15] = system: p53 (p53-bla HCT-116 cells); assay: p53 β-lactamase reporter gene assay; assay type: cell-based, human
[16] = system: Caenorhabditis elegans (Bristol N2); assay: C. elegans larval development and growth assay
rat primary hepatocytes [17] = system: rat primary hepatocytes
hNSC = assay: MMP assay in human neural stem cells (hNSC); assay type: cell-based
[18] = system: isolated rat liver mitochondria; assay: Oxygen consumption, Clark-type oxygen electrode; assay type: biochemical
HepG2 cells [19] = assay: ROS-Glo hydrogen peroxide (ROS) assay; assay type: cell-based, human
rat primary hepatocytes [20] = assay: MMP assay in rat primary hepatocytes

In the case of `CO/C=C(/C(=O)OC)c1ccccc1COc1cccc(C(F)(F)F)n1` [Picoxystrobin], the “inhibitory effect on Complex III at (concentration)” value [1] is reported as 4 µM, the “Complex III % inhibition” value ([1]; at 4μM) is reported as 53.3±3.26 at 4μM % and the “Complex V % inhibition (activity call)” value [2] is reported as “Inactive”. For the same compound, the “Complex I % inhibition” value [3] was 13.2±3.23 at 20μM %, the “LEC (lowest effect concentration), ATP assay” value [4] was less than 10 µM and the Parkin recruitment [5] was “Inactive”. The “Parkin translocation into mitochondria (in words)” value ([5]; 3 h) was “did not induce Parkin translocation”, the “ATP (HepG2, galactose) (efficacy)” value (HepG2 cells [6]) was 3.08±0.64 ( −76.4±37.7 ) % and the “ATP (HepG2, glucose) (efficacy)” value (HepG2 cells [6]) was 3.61±1.57 ( −76.4±30.3 ) %. For the same compound, the IC50 (HepG2 cells [6]; read-out: ATP (HepG2, galactose) IC50) was 3.08 µM, the IC50 (HepG2 cells [6]; read-out: ATP (HepG2, glucose) IC50) was 3.61 µM and the “Complex IV % inhibition (activity call)” value [7] was “Inactive”. For the same compound, the EC50 ([8]; 16 h incubation, mean±SD of three experiments, read-out: ARE (HepG2) EC50) was 0.75 ± 0.49 µM, the “ARE (HepG2) (efficacy)” value ([8]; % of positive control) was 57.6±7.85% and the “Activity in oxygen consumption” value (HepG2 cells [9]) was “Inhibitor”. The “Complex II % inhibition (activity call)” value [10] was “Inactive”, the “LEC (lowest effect concentration), larval growth assay” value [11] was less than 10 µM and the “LUM: mean difference in luminescence (ATP content) relative to plate controls” value ([12]; 0.5 µM) was -0.02313. The “LUM: mean difference in luminescence (ATP content) relative to plate controls” value ([12]; 1 µM) was -0.1059, the “LUM: mean difference in luminescence (ATP content) relative to plate controls” value ([12]; 5 µM) was 0.5517 and the “LUM: mean difference in luminescence (ATP content) relative to plate controls” value ([12]; 10 µM) was 0.8678. The “LUM: mean difference in luminescence (ATP content) relative to plate controls” value ([12]; 25 µM) was 0.0568, the “LUM: mean difference in luminescence (ATP content) relative to plate controls” value ([12]; 50 µM) was 0.3665 and the “LUM: mean difference in luminescence (ATP content) relative to plate controls” value ([12]; 75 µM) was 0.468. For the same compound, the “LUM: mean difference in luminescence (ATP content) relative to plate controls” value ([12]; 100 µM) was 0.877, the “effect on ATP content (in words)” value ([12]; 0.5–100μM) was “inhibited” and the “LEC LUM: lowest effect concentration for luminescence, a measure of nematode ATP content” value ([12]; in vivo) was 5 µM. The “MMP assays efficacy (%) qHTS-HepG2” value (HepG2 cells [13]) was -116±5%, the IC50 (HepG2 cells [13]; read-out: MMP assays IC50 (µM), qHTS-HepG2) was 9.31 ± 2.67 µM and the “HepG2 (efficacy) Galactose (MMP)” value (HepG2 cells [14]) was 24.4±4.56 ( −119±6.45 ) %. For the same compound, the “HepG2 (efficacy) Glucose (MMP)” value (HepG2 cells [14]) was 13.6±14.5 ( −62.9±25.1 ) %, the “MMP assays efficacy (%) HepG2” value (HepG2 cells [14]) was -122% and the IC50 (HepG2 cells [14]; read-out: HepG2 IC50 Galactose (MMP)) was 24.4 µM. It also gave an IC50 (HepG2 cells [14]; read-out: HepG2 IC50 Glucose (MMP)) of 13.6 µM, an IC50 (HepG2 cells [14]; read-out: MMP assays IC50 (µM) HepG2) of 1 µM and an EC50 ([15]; 16 h incubation, mean±SD of three experiments) of 6.68 ± 2.21 µM. For the same compound, the “p53 (HCT-116) (efficacy)” value ([15]; % of positive control) was 40.2±19.6%, the “EXT: mean difference in nematode size relative to plate controls” value ([16]; 0.5 µM) was 0.05428 and the “EXT: mean difference in nematode size relative to plate controls” value ([16]; 1 µM) was 0.004345. The “EXT: mean difference in nematode size relative to plate controls” value ([16]; 5 µM) was 1.265, the “EXT: mean difference in nematode size relative to plate controls” value ([16]; 10 µM) was 1.24 and the “EXT: mean difference in nematode size relative to plate controls” value ([16]; 25 µM) was 0.112. The “EXT: mean difference in nematode size relative to plate controls” value ([16]; 50 µM) was 0.8304, the “EXT: mean difference in nematode size relative to plate controls” value ([16]; 75 µM) was 0.6508 and the “EXT: mean difference in nematode size relative to plate controls” value ([16]; 100 µM) was 1.291. For the same compound, the “effect on larval growth (in words)” value ([16]; 0.5–100μM) was “inhibited”, the “LEC EXT: lowest effect concentration for extinction, a measure of nematode size” value ([16]; in vivo) was 5 µM and the “MMP assays efficacy (%) Rat Hepatocytes” value (rat primary hepatocytes [17]) was -101+6%. For the same compound, the “Rat hepatocytes (efficacy) (MMP)” value (rat primary hepatocytes [17]) was 16.1±7.03 ( −77.3±9.18 ) %, the “hNSC (efficacy) (MMP)” value (hNSC) was 38.2±0.00 ( −92.8±16.3 ) % and the IC50 (hNSC; read-out: hNSC IC50 (MMP)) was 38.2 µM. For the same compound, the “Potential Mechanism” value [18] was “Inhibitor”, the “effect on mitochondrial respiration (in words)” value [18] was “effects similar to antimycin A” and the “I-ADP, % of control (O2 consumption rate)” value ([18]; 0.0064 µM) was 94 (43.2) % of control. For the same compound, the “I-sub, % of control (O2 consumption rate)” value ([18]; 0.0064 µM) was 104 (11.7) % of control, the “II-ADP, % of control (O2 consumption rate)” value (from here on “II-ADP, % of control”) ([18]; 0.0064 µM) was 81 (61.2) % of control and the “II-sub, % of control (O2 consumption rate)” value (“II-sub, % of control” for short) ([18]; 0.0064 µM) was 101 (20.8) % of control. The “I-ADP, % of control (O2 consumption rate)” value ([18]; 0.032 µM) was 84 (38.8) % of control, the “I-sub, % of control (O2 consumption rate)” value ([18]; 0.032 µM) was 103 (11.5) % of control and the “II-ADP, % of control” value ([18]; 0.032 µM) was 36 (27.2) % of control. The “II-sub, % of control” value ([18]; 0.032 µM) was 74 (15.3) % of control, the “I-ADP, % of control (O2 consumption rate)” value ([18]; 0.16 µM) was 50 (22.8) % of control and the “I-sub, % of control (O2 consumption rate)” value ([18]; 0.16 µM) was 90 (10.1) % of control. The “II-ADP, % of control” value ([18]; 0.16 µM) was 11 (7.9) % of control, the “II-sub, % of control” value ([18]; 0.16 µM) was 41 (8.5) % of control and the “I-ADP, % of control (O2 consumption rate)” value ([18]; 0.8 µM) was 16 (7.2) % of control. For the same compound, the “I-sub, % of control (O2 consumption rate)” value ([18]; 0.8 µM) was 59 (6.6) % of control, the “II-ADP, % of control” value ([18]; 0.8 µM) was 9 (7.1) % of control and the “II-sub, % of control” value ([18]; 0.8 µM) was 33 (6.9) % of control. For the same compound, the “I-ADP, % of control (O2 consumption rate)” value ([18]; 4 µM) was 9 (4.0) % of control, the “I-sub, % of control (O2 consumption rate)” value ([18]; 4 µM) was 39 (4.4) % of control and the “II-ADP, % of control” value ([18]; 4 µM) was 9 (6.6) % of control. For the same compound, the “II-sub, % of control” value ([18]; 4 µM) was 33 (6.9) % of control, the “I-ADP, % of control (O2 consumption rate)” value ([18]; 20 µM) was 9 (4.1) % of control and the “I-sub, % of control (O2 consumption rate)” value ([18]; 20 µM) was 34 (3.8) % of control. The “II-ADP, % of control” value ([18]; 20 µM) was 10 (7.4) % of control, the “II-sub, % of control” value ([18]; 20 µM) was 36 (7.4) % of control and the “I-ADP, % of control (O2 consumption rate)” value ([18]; 100 µM) was 8 (3.7) % of control. For the same compound, the “I-sub, % of control (O2 consumption rate)” value ([18]; 100 µM) was 25 (3.9) % of control, the “II-ADP, % of control” value ([18]; 100 µM) was 7 (4.7) % of control and the “II-sub, % of control” value ([18]; 100 µM) was 16 (4.9) % of control. The “ROS (HepG2) (efficacy)” value (HepG2 cells [19]) was 15.4±5.47 ( 36.2±2.46 ) %, the EC50 (HepG2 cells [19]; read-out: ROS (HepG2) EC50) was 15.4 µM and the IC50 (rat primary hepatocytes [20]; read-out: MMP assays IC50 (µM) Rat Hepatocytes) was 14.6 ± 4.7 µM. For the same compound, the IC50 (rat primary hepatocytes [20]; read-out: Rat hepatocytes IC50 (MMP)) was 16.1 µM.

From publication PMC6112376, “Comprehensive Analyses and Prioritization of Tox21 10K Chemicals Affecting Mitochondrial Function by in-Depth Mechanistic Studies” (Environmental Health Perspectives, 2018)
